Reference: PMC10290391, “Targeted degradation of ⍺-synuclein aggregates in Parkinson’s disease using the AUTOTAC technology” (Molecular Neurodegeneration, 2023)

Tests used:
[1] = target: T1, p62 (Homo sapiens, UniProt Q13501); test: Western blot of p62 oligomerization in HeLa cells; type: cell-based
T1 construct: endogenous in cells; host or cells: HeLa
Method: For the separation of Triton X-100 soluble and insoluble fractions for monitoring α-syn, cells were washed with PBS and lysed in Triton X-100 buffer (50 mM Tris / 150 mM NaCl / 100 mM EDTA / 1% Triton X-100, pH 7.6) containing protease and phosphatase inhibitors for 30 min on ice. The lysates were centrifuged at 12,000 rpm for 30 min, and the soluble supernatant was taken. The remaining pellets were washed with Triton X-100 buffer, followed by centrifugation at 12,000 rpm for 20 min. The supernatants were discarded, and the resulting insoluble pellets were resuspended in laemli buffer containing 1% SDS. Samples were subjected to SDS-PAGE. After blocking with 5% milk and washing process, the membranes were incubated with primary antibodies overnight at 4 °C, followed by washing with PBS-T and incubation with horseradish peroxidase-conjugated secondary antibodies. Immunoreactive bands were detected using ECL reagents (Thermo Fisher Scientific, 32,106). For non-reducing SDS-PAGE, cell lysates were mixed with 4 × laemli buffer containing no 2-mercaptoethanol. For reducing SDS-PAGE, cells were lysed by RIPA buffer (150 mM NaCl, 1% Triton X-100, 1% sodium deoxycholate, 0.1% Tris–HCl, pH 7.5, 2 mM EDTA) and prepared with 5 × protein sample buffer containing 2-mercaptoethanol (Elpis Biotech, EBA-1052). Densitometry of developed bands was analyzed with ImageJ (NIH, Bethesda).

[2] = system: α-syn PFF-injected mouse model; type: in vivo; settings: 10 mg/kg oral
Method: Mice were anesthetized and perfused with PBS and 4% paraformaldehyde. Brains were sectioned at 30 μm thickness by vibratome (Leica). Free-floating sections were blocked with PBS containing 5% serum and 0.3% Triton X-100 for 1 h. The sections were then incubated with an anti-tyrosine hydroxylase (TH) antibody (1:5,000, Sigma, T1299) overnight at 4℃. The sections were incubated with biotinylated secondary antibody for 1 h at room temperature. The signal amplification was achieved by the ABC kit (Vector) followed by development with DAB (Vector). TH^+ optical density was measured in three brain sections per animal. Images of the ipsilateral and contralateral striatal area were obtained using an Axio scan Z1 slide scanner (Zeiss). Images were converted to grayscale via Image J, and the intensity was analyzed. Normalized values across the sections were used to compare the relative TH^+ optical density.
Intrastriatal injection of α-syn fibrils was performed in C57BL6/J male mice at 8 weeks of age. 5 µg of α-syn fibrils were sonicated and injected into the dorsal striata in mice at the empirically derived coordinates: 1.0 mm anterior and 1.5 mm lateral to the Bregma, and 3.0 mm ventral relative to the skull in the course of 20 min. Scalp incisions were closed by suture. […]
Brain sections were cut into 30 µm on a freezing microtome, and stored in tissue storage solution at -20 °C. Sections were washed with PBS and incubated with blocking buffer (2% normal goat serum, 1% BSA, 1% Triton X-100, and Tween-20 in PBS) for 1 h at room temperature. After washing with PBS, sections were incubated with primary antibodies (pS129-α-syn, GFAP) overnight at 4 °C, followed by secondary Goat anti-mouse AlexaFluor488 and Goat anti-rabbit AlexaFluor555 for 1 h at room temperature. Images were processed by Axio Scan Z1 (Carl Zeiss). In order to quantify the number of neurons in the PFF-injected striatum, the brain sections were stained with 0.1% crystal violet solution containing 0.1% acetic acid for 1 min at 50 ℃ and then rinsed in distilled water. Sections were dehydrated in 95% and 100% alcohol and mounted on slides.
The behavioral tests were performed according to IACUC approval (AUTOTAC Bio Inc., ATB-2107–06-1). The previously generated PFF-injected mouse model was used. For the forelimb grip strength test, a grip strength meter (Bioseb, BIO-GS3) was used. Three consecutive measurements were done for each mouse, and the average was calculated. For the motor coordination test, a rotarod (Bioseb, BX-ROD) was used. Each trial consisted of three attempts.

T1 sequence (Q13501 whole entry): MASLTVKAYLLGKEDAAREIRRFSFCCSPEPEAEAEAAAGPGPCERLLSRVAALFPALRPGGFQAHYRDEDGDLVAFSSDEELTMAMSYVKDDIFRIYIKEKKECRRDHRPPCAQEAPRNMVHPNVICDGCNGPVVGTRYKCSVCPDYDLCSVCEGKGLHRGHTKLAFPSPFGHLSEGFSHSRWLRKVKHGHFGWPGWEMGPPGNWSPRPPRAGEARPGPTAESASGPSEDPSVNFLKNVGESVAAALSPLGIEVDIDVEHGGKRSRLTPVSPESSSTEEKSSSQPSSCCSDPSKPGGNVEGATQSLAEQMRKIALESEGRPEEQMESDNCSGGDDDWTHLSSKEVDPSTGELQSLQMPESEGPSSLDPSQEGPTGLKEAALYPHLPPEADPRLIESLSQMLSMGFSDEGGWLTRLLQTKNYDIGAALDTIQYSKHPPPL

SMILES: Fc1ccc(COc2cccc(CNCCOCCOCCNc3cccc(-c4cc(-c5ccc6c(c5)OCO6)n[nH]4)c3)c2)cc1 [ATC161, 3-(3-(benzo[d][1,3]dioxol-5-yl)-1H-pyrazol-5-yl)-N-(2-(2-(2-((3-((4-fluorobenzyl)oxy)benzyl)amino)ethoxy)ethoxy)ethyl)aniline]
- p62 oligomerization compared with the other Autotac compounds ([1]; 1 μM, 24 h): most efficiently facilitated p62 oligomerization
- concentration inducing p62 oligomerization ([1]; dose-dependent up to 1,000 nM): ~ 1 nM
- neuronal cell death (Nissl staining, injection site) [2]: did not induce neuronal cell death
- increase in time on rotarod ([2]; 5 times per week, 16 weeks): 59%
- number of GFAP+ signals in striata near endopiriform nucleus ([2]; 9 weeks (45 treatments)): reduced the number of GFAP^+ signals
- TH+ fiber level in ipsilateral striatum ([2]; 16 weeks): reversed the TH^+ level to the extent of control group
- number of p-α-syn+ aggregates in the contralateral striata ([2]; 16 weeks): attenuated the number of p-α-syn^+ aggregates
- peak grip force of fore- and hindlimbs ([2]; 16 weeks): increased the peak grip force of fore- and hindlimbs to the extent of control group
- number of p-α-syn+ aggregates in the injection sites ([2]; 16 weeks, vs vehicle): reduced the number of p-α-syn^+ aggregates
